From patent US11124488B2, “Preparation of 2-([1,2,3]triazol-2-yl)-benzoic acid derivatives” (IDORSIA PHARMACEUTICALS LTD, priority 2017, dated 2021) come the findings set out here.

In general, melting point refers to the temperature of the solid-liquid transition. For `COc1ccc(-n2nccn2)c(C(=O)N2CCC[C@@]2(C)C(=O)O)c1` [Reference Example 4.2, (S)-1-(5-methoxy-2-(2H-1,2,3-triazol-2-yl)benzoyl)-2-methylpyrrolidine-2-carboxylic acid], the melting point came to 178 °C.

In the case of `COc1ccc(-n2nccn2)c(C(=O)N2CCC[C@@]2(C)C(=O)Nc2ccc(Cl)c(C)c2N)c1` [Reference Example 4.3, (S)—N-(2-amino-4-chloro-3-methylphenyl)-1-(5-methoxy-2-(2H-1,2,3-triazol-2-yl)benzoyl)-2 methylpyrrolidine-2-carboxamide], the melting point amounted to 185 °C.
